From ChEMBL document CHEMBL1153141, “Anti-tumor activity of a new series of benzoxazepine derivatives in breast cancer” (Bioorg Med Chem Lett, 2010)
Where a name gives a salt, the structure may show the parent alone. Calls of active or inactive are those of the source. The calls are words filed in the database; no cut-off is given here.

System: MCF7
Assay: Cytotoxicity against human MCF7 cells after 18 hrs by MTT assay
Assay type: functional, cell-based
Conditions: MCF7, 18 h

| SMILES | IC50 [µM] |
| --- | --- |
| CC/C(=C(\c1ccccc1)c1ccc(OCCN(C)C)cc1)c1ccccc1 [TAMOXIFEN CITRATE] | 10.2 |
| CCN(CC)CCOc1ccc(C[C@H]2COc3c(cccc3OC)CN2S(=O)(=O)c2ccc(C)cc2)cc1 | > 50 |
| Cc1ccc(S(=O)(=O)N2Cc3ccccc3OC[C@H]2Cc2ccccc2)cc1 | > 50 |
| Cc1ccc(S(=O)(=O)N2Cc3ccccc3OC[C@@H]2Cc2c[nH]c3ccccc23)cc1 | > 50 |
| COc1cccc2c1OC[C@H](Cc1ccc(OCCN3CCCCCC3)cc1)N(S(=O)(=O)c1ccc(C)cc1)C2 | > 50 |
| COc1cccc2c1OC[C@H](Cc1ccc(OCCN3CCOCC3)cc1)N(S(=O)(=O)c1ccc(C)cc1)C2 | > 50 |
| Cc1ccc(S(=O)(=O)N2Cc3ccccc3OCC2Cc2ccc(OCCN3CCOCC3)cc2)cc1 (stereo unspecified) | > 50 |
| COc1cccc2c1OC[C@H](Cc1ccc(OCCN3CCCC3)cc1)N(S(=O)(=O)c1ccc(C)cc1)C2 | > 50 |
| Cc1ccc(S(=O)(=O)N2Cc3ccccc3OC[C@@H]2Cc2ccccc2)cc1 | > 50 |
| COc1ccc2c(c1)OC[C@H](Cc1ccc(OCCN(C)C)cc1)N(S(=O)(=O)c1ccc(C)cc1)C2 | > 50 |
| Cc1ccc(S(=O)(=O)N2Cc3ccccc3OC[C@@H]2Cc2ccc(O)cc2)cc1 | 29.1 |
| Cc1ccc(S(=O)(=O)N2Cc3ccccc3OC[C@@H]2C)cc1 | > 50 |
| COc1cccc2c1OC[C@H](Cc1ccc(OCCN(C)C)cc1)N(S(=O)(=O)c1ccc(C)cc1)C2 | > 50 |
| COc1ccc2c(c1)OC[C@H](Cc1ccc(OCCN3CCCCC3)cc1)N(S(=O)(=O)c1ccc(C)cc1)C2 | > 50 |
| Cc1ccc(S(=O)(=O)N2Cc3ccccc3OC[C@@H]2C(C)C)cc1 | > 50 |
| COc1cccc2c1OC[C@H](Cc1ccc(OCCN3CCCCC3)cc1)N(S(=O)(=O)c1ccc(C)cc1)C2 | > 50 |
| CCC(C)[C@H]1COc2ccccc2CN1S(=O)(=O)c1ccc(C)cc1 (stereo partly specified) | > 50 |
| Cc1ccc(S(=O)(=O)N2Cc3ccccc3OC[C@@H]2CC(C)C)cc1 | > 50 |
| COc1ccc2c(c1)OC[C@H](Cc1ccc(OCCN3CCCC3)cc1)N(S(=O)(=O)c1ccc(C)cc1)C2 | > 50 |
| COc1ccc2c(c1)OC[C@H](Cc1ccc(OCCN3CCOCC3)cc1)N(S(=O)(=O)c1ccc(C)cc1)C2 | > 50 |
| CCN(CC)CCOc1ccc(C[C@H]2COc3ccccc3CN2S(=O)(=O)c2ccc(C)cc2)cc1 | 6.53 |
| Cc1ccc(S(=O)(=O)N2Cc3ccccc3OC[C@@H]2Cc2ccc(OCCN3CCCC3)cc2)cc1 | 9.34 |

System: MCF7
Assay: Antitumor activity against human MCF7 cells xenografted in mouse assessed as tumor volume regression at 8 to 16 mg/kg, po for 30 days
Assay type: functional, organism-based
Conditions: not given

| SMILES | Activity |
| --- | --- |
| CCN(CC)CCOc1ccc(C[C@H]2COc3ccccc3CN2S(=O)(=O)c2ccc(C)cc2)cc1 | Active |

System: Ishikawa
Assay: Cytotoxicity against human Ishikawa cells after 18 hrs by MTT assay
Assay type: functional, cell-based
Conditions: not given

| SMILES | IC50 [µM] |
| --- | --- |
| CC/C(=C(\c1ccccc1)c1ccc(OCCN(C)C)cc1)c1ccccc1 [TAMOXIFEN CITRATE] | 12.5 |
| CCN(CC)CCOc1ccc(C[C@H]2COc3c(cccc3OC)CN2S(=O)(=O)c2ccc(C)cc2)cc1 | > 50 |
| Cc1ccc(S(=O)(=O)N2Cc3ccccc3OC[C@H]2Cc2ccccc2)cc1 | > 50 |
| Cc1ccc(S(=O)(=O)N2Cc3ccccc3OC[C@@H]2Cc2c[nH]c3ccccc23)cc1 | > 50 |
| COc1cccc2c1OC[C@H](Cc1ccc(OCCN3CCCCCC3)cc1)N(S(=O)(=O)c1ccc(C)cc1)C2 | > 50 |
| COc1cccc2c1OC[C@H](Cc1ccc(OCCN3CCOCC3)cc1)N(S(=O)(=O)c1ccc(C)cc1)C2 | > 50 |
| Cc1ccc(S(=O)(=O)N2Cc3ccccc3OCC2Cc2ccc(OCCN3CCOCC3)cc2)cc1 (stereo unspecified) | > 50 |
| COc1cccc2c1OC[C@H](Cc1ccc(OCCN3CCCC3)cc1)N(S(=O)(=O)c1ccc(C)cc1)C2 | > 50 |
| Cc1ccc(S(=O)(=O)N2Cc3ccccc3OC[C@@H]2Cc2ccccc2)cc1 | > 50 |
| COc1ccc2c(c1)OC[C@H](Cc1ccc(OCCN(C)C)cc1)N(S(=O)(=O)c1ccc(C)cc1)C2 | > 50 |
| Cc1ccc(S(=O)(=O)N2Cc3ccccc3OC[C@@H]2Cc2ccc(O)cc2)cc1 | 34 |
| Cc1ccc(S(=O)(=O)N2Cc3ccccc3OC[C@@H]2C)cc1 | > 50 |
| COc1cccc2c1OC[C@H](Cc1ccc(OCCN(C)C)cc1)N(S(=O)(=O)c1ccc(C)cc1)C2 | > 50 |
| COc1ccc2c(c1)OC[C@H](Cc1ccc(OCCN3CCCCC3)cc1)N(S(=O)(=O)c1ccc(C)cc1)C2 | > 50 |
| Cc1ccc(S(=O)(=O)N2Cc3ccccc3OC[C@@H]2C(C)C)cc1 | > 50 |
| COc1cccc2c1OC[C@H](Cc1ccc(OCCN3CCCCC3)cc1)N(S(=O)(=O)c1ccc(C)cc1)C2 | > 50 |
| CCC(C)[C@H]1COc2ccccc2CN1S(=O)(=O)c1ccc(C)cc1 (stereo partly specified) | > 50 |
| Cc1ccc(S(=O)(=O)N2Cc3ccccc3OC[C@@H]2CC(C)C)cc1 | > 50 |
| COc1ccc2c(c1)OC[C@H](Cc1ccc(OCCN3CCCC3)cc1)N(S(=O)(=O)c1ccc(C)cc1)C2 | > 50 |
| COc1ccc2c(c1)OC[C@H](Cc1ccc(OCCN3CCOCC3)cc1)N(S(=O)(=O)c1ccc(C)cc1)C2 | > 50 |
| CCN(CC)CCOc1ccc(C[C@H]2COc3ccccc3CN2S(=O)(=O)c2ccc(C)cc2)cc1 | 22.6 |
| Cc1ccc(S(=O)(=O)N2Cc3ccccc3OC[C@@H]2Cc2ccc(OCCN3CCCC3)cc2)cc1 | 23.8 |

System: DU-145
Assay: Cytotoxicity against human DU145 cells after 18 hrs by MTT assay
Assay type: functional, cell-based
Conditions: DU-145, 18 h

| SMILES | IC50 [µM] |
| --- | --- |
| CC/C(=C(\c1ccccc1)c1ccc(OCCN(C)C)cc1)c1ccccc1 [TAMOXIFEN CITRATE] | 15.2 |
| CCN(CC)CCOc1ccc(C[C@H]2COc3c(cccc3OC)CN2S(=O)(=O)c2ccc(C)cc2)cc1 | > 50 |
| Cc1ccc(S(=O)(=O)N2Cc3ccccc3OC[C@H]2Cc2ccccc2)cc1 | > 50 |
| Cc1ccc(S(=O)(=O)N2Cc3ccccc3OC[C@@H]2Cc2c[nH]c3ccccc23)cc1 | > 50 |
| COc1cccc2c1OC[C@H](Cc1ccc(OCCN3CCCCCC3)cc1)N(S(=O)(=O)c1ccc(C)cc1)C2 | > 50 |
| COc1cccc2c1OC[C@H](Cc1ccc(OCCN3CCOCC3)cc1)N(S(=O)(=O)c1ccc(C)cc1)C2 | > 50 |
| Cc1ccc(S(=O)(=O)N2Cc3ccccc3OCC2Cc2ccc(OCCN3CCOCC3)cc2)cc1 (stereo unspecified) | > 50 |
| COc1cccc2c1OC[C@H](Cc1ccc(OCCN3CCCC3)cc1)N(S(=O)(=O)c1ccc(C)cc1)C2 | > 50 |
| Cc1ccc(S(=O)(=O)N2Cc3ccccc3OC[C@@H]2Cc2ccccc2)cc1 | > 50 |
| COc1ccc2c(c1)OC[C@H](Cc1ccc(OCCN(C)C)cc1)N(S(=O)(=O)c1ccc(C)cc1)C2 | > 50 |
| Cc1ccc(S(=O)(=O)N2Cc3ccccc3OC[C@@H]2C)cc1 | > 50 |
| COc1cccc2c1OC[C@H](Cc1ccc(OCCN(C)C)cc1)N(S(=O)(=O)c1ccc(C)cc1)C2 | > 50 |
| COc1ccc2c(c1)OC[C@H](Cc1ccc(OCCN3CCCCC3)cc1)N(S(=O)(=O)c1ccc(C)cc1)C2 | > 50 |
| Cc1ccc(S(=O)(=O)N2Cc3ccccc3OC[C@@H]2C(C)C)cc1 | > 50 |
| COc1cccc2c1OC[C@H](Cc1ccc(OCCN3CCCCC3)cc1)N(S(=O)(=O)c1ccc(C)cc1)C2 | > 50 |
| CCC(C)[C@H]1COc2ccccc2CN1S(=O)(=O)c1ccc(C)cc1 (stereo partly specified) | > 50 |
| Cc1ccc(S(=O)(=O)N2Cc3ccccc3OC[C@@H]2CC(C)C)cc1 | > 50 |
| COc1ccc2c(c1)OC[C@H](Cc1ccc(OCCN3CCCC3)cc1)N(S(=O)(=O)c1ccc(C)cc1)C2 | > 50 |
| COc1ccc2c(c1)OC[C@H](Cc1ccc(OCCN3CCOCC3)cc1)N(S(=O)(=O)c1ccc(C)cc1)C2 | > 50 |
| CCN(CC)CCOc1ccc(C[C@H]2COc3ccccc3CN2S(=O)(=O)c2ccc(C)cc2)cc1 | 23 |
| Cc1ccc(S(=O)(=O)N2Cc3ccccc3OC[C@@H]2Cc2ccc(OCCN3CCCC3)cc2)cc1 | 30 |

System: HEK293
Assay: Cytotoxicity against HEK293 cells after 18 hrs by MTT assay
Assay type: cell-based
Conditions: human, hek293, 18 h

| SMILES | Activity |
| --- | --- |
| Cc1ccc(S(=O)(=O)N2Cc3ccccc3OC[C@@H]2Cc2ccc(OCCN3CCCC3)cc2)cc1 | Non-toxic |

System: MCF7
Assay: Induction of apoptosis in human MCF7 cells at 5 to 10 uM after 24 hrs using annexin V-propidium iodide staining by flow cytometry relative to control
Assay type: functional, cell-based
Conditions: not given

| SMILES | Activity |
| --- | --- |
| CCN(CC)CCOc1ccc(C[C@H]2COc3ccccc3CN2S(=O)(=O)c2ccc(C)cc2)cc1 | Active |

System: MDA-MB-231
Assay: Cytotoxicity against human MDA-MB-231 cells after 18 hrs by MTT assay
Assay type: functional, cell-based
Conditions: MDA-MB-231, 18 h

| SMILES | IC50 [µM] |
| --- | --- |
| CC/C(=C(\c1ccccc1)c1ccc(OCCN(C)C)cc1)c1ccccc1 [TAMOXIFEN CITRATE] | 12.3 |
| CCN(CC)CCOc1ccc(C[C@H]2COc3c(cccc3OC)CN2S(=O)(=O)c2ccc(C)cc2)cc1 | > 50 |
| Cc1ccc(S(=O)(=O)N2Cc3ccccc3OC[C@H]2Cc2ccccc2)cc1 | > 50 |
| Cc1ccc(S(=O)(=O)N2Cc3ccccc3OC[C@@H]2Cc2c[nH]c3ccccc23)cc1 | > 50 |
| COc1cccc2c1OC[C@H](Cc1ccc(OCCN3CCCCCC3)cc1)N(S(=O)(=O)c1ccc(C)cc1)C2 | > 50 |
| COc1cccc2c1OC[C@H](Cc1ccc(OCCN3CCOCC3)cc1)N(S(=O)(=O)c1ccc(C)cc1)C2 | > 50 |
| Cc1ccc(S(=O)(=O)N2Cc3ccccc3OCC2Cc2ccc(OCCN3CCOCC3)cc2)cc1 (stereo unspecified) | > 50 |
| COc1cccc2c1OC[C@H](Cc1ccc(OCCN3CCCC3)cc1)N(S(=O)(=O)c1ccc(C)cc1)C2 | > 50 |
| Cc1ccc(S(=O)(=O)N2Cc3ccccc3OC[C@@H]2Cc2ccccc2)cc1 | > 50 |
| COc1ccc2c(c1)OC[C@H](Cc1ccc(OCCN(C)C)cc1)N(S(=O)(=O)c1ccc(C)cc1)C2 | > 50 |
| Cc1ccc(S(=O)(=O)N2Cc3ccccc3OC[C@@H]2Cc2ccc(O)cc2)cc1 | > 50 |
| Cc1ccc(S(=O)(=O)N2Cc3ccccc3OC[C@@H]2C)cc1 | > 50 |
| COc1cccc2c1OC[C@H](Cc1ccc(OCCN(C)C)cc1)N(S(=O)(=O)c1ccc(C)cc1)C2 | > 50 |
| COc1ccc2c(c1)OC[C@H](Cc1ccc(OCCN3CCCCC3)cc1)N(S(=O)(=O)c1ccc(C)cc1)C2 | > 50 |
| Cc1ccc(S(=O)(=O)N2Cc3ccccc3OC[C@@H]2C(C)C)cc1 | > 50 |
| COc1cccc2c1OC[C@H](Cc1ccc(OCCN3CCCCC3)cc1)N(S(=O)(=O)c1ccc(C)cc1)C2 | > 50 |
| CCC(C)[C@H]1COc2ccccc2CN1S(=O)(=O)c1ccc(C)cc1 (stereo partly specified) | > 50 |
| Cc1ccc(S(=O)(=O)N2Cc3ccccc3OC[C@@H]2CC(C)C)cc1 | > 50 |
| COc1ccc2c(c1)OC[C@H](Cc1ccc(OCCN3CCCC3)cc1)N(S(=O)(=O)c1ccc(C)cc1)C2 | > 50 |
| COc1ccc2c(c1)OC[C@H](Cc1ccc(OCCN3CCOCC3)cc1)N(S(=O)(=O)c1ccc(C)cc1)C2 | > 50 |
| CCN(CC)CCOc1ccc(C[C@H]2COc3ccccc3CN2S(=O)(=O)c2ccc(C)cc2)cc1 | 17.4 |
| Cc1ccc(S(=O)(=O)N2Cc3ccccc3OC[C@@H]2Cc2ccc(OCCN3CCCC3)cc2)cc1 | 13 |

System: MCF7
Assay: Cell cycle arrest in human MCF7 cells assessed as accumulation at G0/G1 phase at 5 to 10 uM after 24 hrs using […] by flow cytometry relative to control
Assay type: functional, cell-based
Conditions: not given

| SMILES | Activity |
| --- | --- |
| CCN(CC)CCOc1ccc(C[C@H]2COc3ccccc3CN2S(=O)(=O)c2ccc(C)cc2)cc1 | Active |
